Experimental data from patent US12037415B2, “Peptide and pharmaceutical composition for treating an eye disease comprising the same as an active pharmaceutical ingredient” (YuYu Pharma, Inc., priority 2017, dated 2024).
Non-standard residues stand in square brackets, D forms with d. Residues, ends and D or L forms follow the SMILES beside them. No end group written: not given here. Pro(trans-4-F) = O=C(O)[C@@H]1C[C@@H](F)CN1; Pro(4,4-Me2) = CC1(C)CN[C@H](C(=O)O)C1; Pro(4-oxo) = O=C1CN[C@H](C(=O)O)C1; Hyp = O=C(O)[C@@H]1C[C@@H](O)CN1

Tests used:
[1] = system: cornea of rats with dry eye syndrome (ELGE); assay: Corneal permeability of fluorescent dye (corneal damage) in rats with ELGE-induced dry eye syndrome; type: in vivo, rat; conditions: 0.3% solution, day 14 after the administration
Excerpt: In order to evaluate the eye protection effect on dry eye syndrome by YDE-001 to YDE-028 prepared in Working Example 1, a total of 320 Sprague-Dawley-type male rats (OrientBio, Seungnam, Korea) were adapted for 7 days. Thereafter, dry eye syndrome was induced in 264 test rats through extraorbital lacrimal gland excision (hereinafter, ELGE). 8 test rats without the eye abnormality were subjected to a sham operation as a control group.
The rats were systemically anesthetized by inhaling a mixed gas of 2% to 3% of isoflurane (Hana Pharm. Co., Hwasung, Korea), 70% of N2O, and 28.6% of O2 using a rodent anesthesia machine (Surgivet, Waukesha, Wis., USA) and a ventilator (Model 687, Harvard Apparatus, Cambridge, UK). Thereafter, the extraorbital lacrimal gland located in the subdermal area above the masseter muscle and under the optic nerve was excised through a transverse incision in a size of 10 mm on the anterior part of the left ear tragus. The skin was sutured by a general method. […] After 6 days following the ELGE operation, confirmation was performed through the Schirmer test by measuring the amount of tear secretion whether dry eye syndrome had been induced. Meanwhile, each rat of the control group with the sham operation was checked for the presence and location of the extraorbital lacrimal gland through a skin incision, and the skin was then sutured without the excision thereof (FIG. 134).
In addition, in order to evaluate the eye protection effect on dry eye syndrome by YDE-029 to YDE-043 prepared in Working Example 1, a total of 200 Sprague-Dawley-type male rats (OrientBio, Seungnam, Korea) were adapted for 7 days. Dry eye syndrome was induced in 165 test rats through the ELGE. 8 test rats without the eye abnormality were subjected to the sham operation as a control group. The ELGE was carried out as described above.
(§1) For YDE-001 to YDE-028, YY-102 and the 28 YDE-series were each dissolved in physiological saline at a concentration of 3 mg/ml and administered at a dose of 5 μl/eye at 9:30 am and 3:30 pm daily for 14 days after 7 days from the ELGE operation for a total of 28 times. The DS solution was dissolved in physiological saline at a concentration of 30 mg/ml and administered at a dose of 5 μl/eye twice a day for 14 days after 7 days from the ELGE operation for a total of 28 times. For the sham control and the ELGE control groups, the same stimulation as the administration was applied. In order to prevent excessive eye dryness, the same volume of physiological saline was applied in the same manner in place of the test substances.
as §1, with “Further, For YDE-029” for “For YDE-001”, “Further, For YDE-029 to YDE-043,” for “For YDE-001 to YDE-028,”, “YDE-029 to YDE-043, YY-102 and” for “YDE-001 to YDE-028, YY-102 and”, “and the 15 YDE-series were” for “and the 28 YDE-series were”, “the test substances (FIG. 137).” for “the test substances.”
After YDE-001 to YDE-028 were each administered to the eyes […], the changes in the corneal permeability were checked.
In order to measure the corneal permeability, Zolethyl 50™ (Virbac Lab., Carros, France), an animal anesthetic, was intraperitoneally injected at a dose of 25 mg/kg. Thereafter, saline containing a 1% (v/v) fluorescent solution (fluorescein sodium salt, Tokyo Kasei Kogyo Co., Tokyo, Japan) was applied to the eyes at a dose of 5 μl/eye. The eyes thus treated were closed and fixed with a tape. After 1 hour, the remaining fluorescent solution was removed using a cotton swab (FIG. 142). […]

[2] = Stability in aqueous solution, amount of related substances under long-term storage conditions; type: physicochemical; conditions: glass vial, 25° C., 75% RH
Description: In order to confirm the stability of each test substance in an aqueous solution, […] of each sample was dissolved in 1 ml of water to a concentration of 1 mg/ml, which was then charged to a glass vial, plugged with a rubber cap, sealed with an aluminum cap, and stored under long-term storage conditions (25° C., 75% RH). The stability of the test substance was evaluated by measuring the amount of related substances at the time of one week, two weeks, four weeks, eight weeks, and twelve weeks under the long-term storage conditions.

[3] = study of YDE-001 to YDE-028 (Table 16)
[4] = study of YDE-029 to YDE-043 (Table 17)

Row | Molecule | Permeability of fluorescent dye (%) [1, 3] [%] | Amount of related substances (%; after 12 weeks) [2] [%] | Permeability of fluorescent dye (%) [1, 4] [%]
1 | CC(C)C[C@H](NC(=O)CNC(=O)[C@H](Cc1ccc(O)cc1)NC(=O)[C@H](CCC(N)=O)NC(=O)CNC(=O)[C@@H]1C[C@@H](O)CN1)C(=O)N[C@@H](C)C(=O)NCC(=O)N1CCC[C@H]1C(=O)N[C@@H](CCCCN)C(=O)O [YDE-013, HyP-Gly-Gln-Tyr-Gly-Leu-Ala-Gly-Pro-Lys] (H-[Hyp]GQYGLAGPK-OH) | 32.24 ± 7.84 | 5.92 | 
2 | CC(C)C[C@H](NC(=O)CNC(=O)[C@H](CCC(=O)O)NC(=O)[C@H](CCC(N)=O)NC(=O)CNC(=O)[C@@H]1C[C@@H](O)CN1)C(=O)N[C@@H](C)C(=O)NCC(=O)N1CCC[C@H]1C(=O)N[C@@H](CCCCN)C(=O)O [YDE-001, HyP-Gly-Gln-Glu-Gly-Leu-Ala-Gly-Pro-Lys] (H-[Hyp]GQEGLAGPK-OH) | 25.49 ± 11.62 | 3.92 | 
3 | CC(C)C[C@H](NC(=O)[C@@H](NC(=O)[C@H](CC(=O)O)NC(=O)[C@H](CCC(N)=O)NC(=O)CNC(=O)[C@@H]1C[C@@H](O)CN1)C(C)C)C(=O)N[C@@H](C)C(=O)NCC(=O)N1CCC[C@H]1C(=O)N[C@@H](CCCCN)C(=O)O [YDE-015, HyP-Gly-Gln-Asp-Val-Leu-Ala-Gly-Pro-Lys] (H-[Hyp]GQDVLAGPK-OH) | 15.95 ± 6.48 | 13.05 | 
4 | CC(C)C[C@H](NC(=O)[C@H](CCC(N)=O)NC(=O)CNC(=O)[C@@H]1C[C@@H](O)CN1)C(=O)NCC(=O)O [YDE-043, HyP-Gly-Gln-Leu-Gly] (H-[Hyp]GQLG-OH) |  |  | 19.04 ± 7.36
5 | CC(C)C[C@H](NC(=O)CNC(=O)[C@H](CC(N)=O)NC(=O)[C@H](CCC(N)=O)NC(=O)CNC(=O)[C@@H]1C[C@@H](O)CN1)C(=O)N[C@@H](C)C(=O)NCC(=O)N1CCC[C@H]1C(=O)N[C@@H](CCCCN)C(=O)O [YDE-002, HyP-Gly-Gln-Asn-Gly-Leu-Ala-Gly-Pro-Lys] (H-[Hyp]GQNGLAGPK-OH) | 38.26 ± 11.25 | 4.93 | 
6 | CC(C)C[C@H](NC(=O)[C@H](CO)NC(=O)[C@H](CC(=O)O)NC(=O)[C@H](CCC(N)=O)NC(=O)CNC(=O)[C@@H]1C[C@@H](O)CN1)C(=O)N[C@@H](C)C(=O)NCC(=O)N1CCC[C@H]1C(=O)N[C@@H](CCCCN)C(=O)O [YDE-023, HyP-Gly-Gln-Asp-Ser-Leu-Ala-Gly-Pro-Lys] (H-[Hyp]GQDSLAGPK-OH) | 26.51 ± 8.18 | 30.66 | 
7 | CC(C)C[C@H](NC(=O)CNC(=O)[C@H](Cc1cnc[nH]1)NC(=O)[C@H](CCC(N)=O)NC(=O)CNC(=O)[C@@H]1C[C@@H](O)CN1)C(=O)N[C@@H](C)C(=O)NCC(=O)N1CCC[C@H]1C(=O)N[C@@H](CCCCN)C(=O)O [YDE-004, HyP-Gly-Gln-His-Gly-Leu-Ala-Gly-Pro-Lys] (H-[Hyp]GQHGLAGPK-OH) | 35.05 ± 11.74 | 2.11 | 
8 | CC(C)C[C@H](NC(=O)[C@H](C)NC(=O)[C@H](CC(=O)O)NC(=O)[C@H](CCC(N)=O)NC(=O)CNC(=O)[C@@H]1C[C@@H](O)CN1)C(=O)N[C@@H](C)C(=O)NCC(=O)N1CCC[C@H]1C(=O)N[C@@H](CCCCN)C(=O)O [YDE-018, HyP-Gly-Gln-Asp-Ala-Leu-Ala-Gly-Pro-Lys] (H-[Hyp]GQDALAGPK-OH) | 38.19 ± 10.96 | 25.39 | 
9 | CC(C)C[C@H](NC(=O)CNC(=O)[C@H](CC(C)C)NC(=O)[C@H](CCC(N)=O)NC(=O)CNC(=O)[C@@H]1C[C@@H](O)CN1)C(=O)N[C@@H](C)C(=O)NCC(=O)N1CCC[C@H]1C(=O)N[C@@H](CCCCN)C(=O)O [YDE-011, HyP-Gly-Gln-Leu-Gly-Leu-Ala-Gly-Pro-Lys] (H-[Hyp]GQLGLAGPK-OH) | 18.11 ± 11.61 | 3.83 | 
10 | CC(C)C[C@H](NC(=O)CNC(=O)[C@H](CO)NC(=O)[C@H](CCC(N)=O)NC(=O)CNC(=O)[C@@H]1C[C@@H](O)CN1)C(=O)N[C@@H](C)C(=O)NCC(=O)N1CCC[C@H]1C(=O)N[C@@H](CCCCN)C(=O)O [YDE-006, HyP-Gly-Gln-Ser-Gly-Leu-Ala-Gly-Pro-Lys] (H-[Hyp]GQSGLAGPK-OH) | 33.23 ± 13.26 | 3.67 | 
11 | PGQLGLAGPK [YDE-037, Pro-Gly-Gln-Leu-Gly-Leu-Ala-Gly-Pro-Lys] |  |  | 36.30 ± 9.75
12 | CC(C)C[C@H](NC(=O)CNC(=O)[C@H](CCC(N)=O)NC(=O)[C@H](CCC(N)=O)NC(=O)CNC(=O)[C@@H]1C[C@@H](O)CN1)C(=O)N[C@@H](C)C(=O)NCC(=O)N1CCC[C@H]1C(=O)N[C@@H](CCCCN)C(=O)O [YDE-003, HyP-Gly-Gln-Gln-Gly-Leu-Ala-Gly-Pro-Lys] (H-[Hyp]GQQGLAGPK-OH) | 40.45 ± 6.46 | 6.86 | 
13 | CC(C)C[C@H](NC(=O)CNC(=O)[C@H](CC(C)C)NC(=O)[C@H](CCC(N)=O)NC(=O)CNC(=O)[C@@H]1CC(=O)CN1)C(=O)N[C@@H](C)C(=O)NCC(=O)N1CCC[C@H]1C(=O)N[C@@H](CCCCN)C(=O)O [YDE-035, (4-oxo)Pro-Gly-Gln-Leu-Gly-Leu-Ala-Gly-Pro-Lys] (H-[Pro(4-oxo)]GQLGLAGPK-OH) |  |  | 27.62 ± 6.51
14 | CC(C)C[C@H](NC(=O)CNC(=O)[C@H](CC(C)C)NC(=O)[C@H](CCC(N)=O)NC(=O)CNC(=O)[C@@H]1C[C@@H](O)CN1)C(=O)O [YDE-042, HyP-Gly-Gln-Leu-Gly-Leu] (H-[Hyp]GQLGL-OH) |  |  | 20.72 ± 11.37
15 | CC(C)C[C@H](NC(=O)CNC(=O)[C@H](CC(C)C)NC(=O)[C@H](CCC(N)=O)NC(=O)CNC(=O)[C@@H]1C[C@@H](O)CN1)C(=O)N[C@@H](C)C(=O)NCC(=O)N1CCC[C@H]1C(=O)N[C@@H](CCC(=O)O)C(=O)O [YDE-031, HyP-Gly-Gln-Leu-Gly-Leu-Ala-Gly-Pro-Glu] (H-[Hyp]GQLGLAGPE-OH) |  |  | 33.35 ± 11.01
16 | CC(C)C[C@H](NC(=O)CNC(=O)[C@H](CC(C)C)NC(=O)[C@H](CCC(N)=O)NC(=O)CNC(=O)[C@@H]1C[C@@H](F)CN1)C(=O)N[C@@H](C)C(=O)NCC(=O)N1CCC[C@H]1C(=O)N[C@@H](CCCCN)C(=O)O [YDE-039, (4-Fluoro)Pro-Gly-Gln-Leu-Gly-Leu-Ala-Gly-Pro-Lys] (H-[Pro(trans-4-F)]GQLGLAGPK-OH) |  |  | 29.94 ± 11.40
17 | CC(C)C[C@H](NC(=O)CNC(=O)[C@H](CC(C)C)NC(=O)[C@H](CCC(N)=O)NC(=O)CNC(=O)[C@@H]1CC(C)(C)CN1)C(=O)N[C@@H](C)C(=O)NCC(=O)N1CCC[C@H]1C(=O)N[C@@H](CCCCN)C(=O)O [YDE-040, (4-Dimethyl)Pro-Gly-Gln-Leu-Gly-Leu-Ala-Gly-Pro-Lys] (H-[Pro(4,4-Me2)]GQLGLAGPK-OH) |  |  | 18.33 ± 9.41
